How the values were obtained:
[1] = Descriptive sensory evaluation of traumatic acid and 3-dodecenedioic acid in sugar water; details: 5 ppm in sugar water (4% sucrose), summary statement
Description: Sugar water (4% sucrose in drinking water) was prepared and used as a base solution. Traumatic acid (purchased from Cayman Chemical Company) and 3-dodecenedioic acid (isolated from a B. nivea extract) were added to the sugar water and taste descriptive sensory evaluations were performed (Table 2).

[2] = Comparison of sweetness and mouthfeel enhancement and off-flavor masking of sebacic acid with analogs; details: at 2 ppm; analogs: adipic, pimelic, suberic, undecanedioic, dodecanedioic, 1,11-undecanedicarboxylic, tetradecanedioic, hexadecanedioic acid
[3] = Descriptive sensory evaluation of sebacic acid in different applications
Description: Descriptive sensory evaluations were carried out using different amounts of sebacic acid in different applications.

[4] = Descriptive sensory evaluation of traumatic acid in different applications
Description: Descriptive sensory evaluations were carried out using different amounts of traumatic acid in different applications.

SMILES | Enhancement of sweetness and mouthfeel of sugar water [1] | Sweetness and mouthfeel enhancement as well as off-flavor masking, compared among dicarboxylic acids [2] | Taste Evaluation ([3]; sebacic acid 40 ppm in 3% Sugar + 0.05% Citric Acid Water Solution) | Taste Evaluation ([3]; sebacic acid 40 ppm in Water) | Taste Evaluation ([4]; traumatic acid 40 ppm in 3% Sugar + 0.05% Citric Acid Water Solution) | Taste Evaluation ([4]; traumatic acid 40 ppm in Water)
O=C(O)CC=CCCCCCCCC(=O)O [3-Dodecenedioic acid, 3-dodecenedioic acid] | enhanced the sweetness and mouthfeel of sugar water | the strongest and the longest-lasting effect |  |  |  | 
O=C(O)CCCCCCCCC(=O)O [Sebacic Acid, decanedioic acid] |  |  | Fatty and oily | Fatty and oily |  | 
O=C(O)C=CCCCCCCCCC(=O)O [Traumatic acid, 2-dodecenedioic acid] | enhanced the sweetness and mouthfeel of sugar water | the strongest and the longest-lasting effect |  |  | Fatty and oily | Fatty and oily
